A compilation of properties of binary mixtures (doi:10.1016/j.molliq.2022.119918)

Test: xn = mol fraction of the nth substance listed
Details: 100 kPa

CS(C)=O + COCCCC[n+]1ccn(C)c1.NCC(=O)[O-]
x2 = 0
Details | viscosity [mPa·s]
288.15 K | 2.47
293.15 K | 2.21
298.15 K | 1.99
303.15 K | 1.81
313.15 K | 1.51
318.15 K | 1.39

CS(C)=O + NC(C)C(=O)[O-].COCCCCN1C=[N+](C=C1)C
x2 = 0
Details | viscosity [mPa·s]
288.15 K | 2.47
293.15 K | 2.21
298.15 K | 1.99
303.15 K | 1.81
313.15 K | 1.51
318.15 K | 1.39

COCCCC[n+]1ccn(C)c1.NCC(=O)[O-] + CS(C)=O
viscosity [mPa·s]
Details | x1 = 0.1009 | x1 = 0.1984 | x1 = 0.299 | x1 = 0.3986 | x1 = 0.4986 | x1 = 0.6006 | x1 = 0.701 | x1 = 0.7941 | x1 = 0.907 | x1 = 1
288.15 K | 7.64 | 11.87 | 20.11 | 32.75 | – | 66.91 | 88.2 | 112 | 149.9 | 180.6
293.15 K | 6.23 | 9.49 | 15.68 | 24.97 | – | – | 66.19 | – | 110.8 | 130.1
298.15 K | 5.05 | 7.6 | 12.46 | 19.85 | 29.5 | 40.49 | 52.63 | – | 83.6 | –
303.15 K | – | 6.27 | – | 15.9 | 23.66 | 32.57 | 42.38 | 52.54 | 65.49 | 74.4
308.15 K | – | 5.29 | – | 13.2 | 19.51 | 26.99 | – | 42.67 | 52.32 | 58.09
313.15 K | 3.15 | 4.59 | 7.18 | 11.14 | 16.4 | 22.63 | 29.37 | 35.24 | 42.06 | 46.29
318.15 K | – | 3.92 | 6.04 | 9.3 | 13.46 | 18.67 | 23.75 | 28.16 | 32.95 | 36.43

CC(N)C(=O)[O-].COCCCCn1cc[n+](C)c1 + CS(C)=O
viscosity [mPa·s]
Details | x1 = 0.1009 | x1 = 0.1996 | x1 = 0.3012 | x1 = 0.3985 | x1 = 0.4922 | x1 = 0.5996 | x1 = 0.6966 | x1 = 0.7973 | x1 = 0.8997 | x1 = 1
288.15 K | 8.27 | – | – | 40.5 | 63.89 | – | 135.6 | 203 | – | 403
293.15 K | 7.89 | – | – | 31.54 | 48.62 | 72 | 100.9 | 143.7 | 206 | –
298.15 K | 6.04 | – | 15.05 | 24.76 | 36.87 | 53.3 | 73 | 101.8 | 142.7 | 180.6
303.15 K | 4.95 | – | 12.31 | 19.81 | 29.28 | – | 56.62 | 77.6 | 107.6 | 132.1
308.15 K | 4.21 | 6.25 | 10.23 | – | 23.47 | – | – | – | 80.8 | 98.3
313.15 K | 3.64 | 5.27 | 8.32 | 13.02 | 18.84 | 26.78 | – | 47.36 | 61.67 | 73.5
318.15 K | – | 4.57 | 7.01 | 10.65 | – | – | 28.53 | – | 47.83 | 55.86
